How the values were obtained:
[1] = target: T1, recombinant human PARP7 protein (Homo sapiens, UniProt Q7Z3E1); experiment: Inhibition of PARP7 biological enzyme activity (histone-coated plate, Biotin-NAD+, chemiluminescence); assay type: biochemical; details: recombinant human PARP7, Biotin-NAD+ substrate
T1 construct: purchased Abcam ab271651
T1 sequence (Q7Z3E1 1-657): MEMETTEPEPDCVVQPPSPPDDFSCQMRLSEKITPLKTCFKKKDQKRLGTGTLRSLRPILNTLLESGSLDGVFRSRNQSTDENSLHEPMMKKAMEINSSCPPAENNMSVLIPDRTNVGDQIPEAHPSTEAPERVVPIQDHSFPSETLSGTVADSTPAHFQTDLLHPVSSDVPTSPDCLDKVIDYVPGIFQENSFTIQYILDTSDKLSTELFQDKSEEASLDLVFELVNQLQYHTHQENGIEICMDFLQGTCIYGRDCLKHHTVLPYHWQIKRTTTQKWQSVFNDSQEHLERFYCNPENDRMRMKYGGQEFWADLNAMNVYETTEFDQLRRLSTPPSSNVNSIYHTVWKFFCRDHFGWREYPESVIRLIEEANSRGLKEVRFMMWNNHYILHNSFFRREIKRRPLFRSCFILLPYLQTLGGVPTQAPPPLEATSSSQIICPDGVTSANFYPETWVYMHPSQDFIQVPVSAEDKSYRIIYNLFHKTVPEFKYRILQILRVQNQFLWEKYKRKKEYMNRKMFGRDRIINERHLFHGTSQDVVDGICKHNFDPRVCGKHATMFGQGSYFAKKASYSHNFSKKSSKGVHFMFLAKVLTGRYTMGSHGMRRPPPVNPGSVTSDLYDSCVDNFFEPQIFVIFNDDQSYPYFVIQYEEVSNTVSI
Method: The recombinant human PARP7 protein kit (Abcam, catalog number ab271651) was used for the assay. According to the kit instructions, 30 μL of histone coating solution (1.5 μg/mL) was first applied to the 384 well holes of the reaction plate and coated at 4° C. for 2 hours. Then, the histone coated solution was washed off, and 50 μL sealing buffer was added to each well, and the sealing buffer was washed off after incubation at 25° C. for 60 minutes. 1000 times the concentration of the compound was 10 configured and diluted from 1 mM to 0.05 μM, and the configured compound was transferred to 384-well plates with 25 nL per well using Echo. The final concentration of the compound in the reaction system was 1000 nM, 333.33 nM, 111.11 nM, 37.03 nM, 12.34 nM, 4.11 nM, 1.37 nM, 0.45 nM, 0.15 nM, 0.05 nM, which was used as the test hole. At the same time, 25 nL DMSO was added to the negative control well and the positive control well. The PARP7 enzyme solution with a concentration of 1.67 times was prepared, and the PARP7 enzyme solution was added to the test hole and the positive control hole with 15 μL each, while the negative control hole was added with 15 μL base Buffer, and incubated at 25° C. for 15 minutes. Then 10 μL 2.5 times Biotin-NAD+ substrate solution was added and incubated at 25° C. for 60 min. After the reaction solution was washed off, the 384-well reaction plates were treated with closed buffer solution diluted with streptavidin-HRP (1:500), each well was 30 μL, and incubated at 25° C. for 30 min. After the HRP buffer was washed off, 30 μL HRP chemiluminescent substrate mixture was added to each well, and the luminescence signal (RLU) of each well was detected by Envision. Calculation formula: Inhibition rate %=(average positive control-RLU compound)/(average positive control-average negative control))*100%. The dose-response curves of each compound were fitted by GraphPad Prism 8 to get IC50 values. IC50 values less than 0.01 μM are labeled as “+++”, IC50 values from 0.01 to 0.1 µM are labeled as “++”, and IC50 values greater than 0.1 to 10.0 μM are labeled as “+”.

[2] = system: NCI-H1373 cancer cells; experiment: NCI-H1373 cancer cell growth inhibition (CellTiter-Glo, 144 hours); assay type: cell-based; details: Homo sapiens, 144 hours culture
Method: Promega CellTiter-Glo cell activity assay kit (Item No.: Promege-G7573) was used to determine the cell activity. 90 μL NCI-H1373 cell suspension (ATCC, catalog No. CRL-5866, batch No. 58078716) was spread into the pores of the 96-well plate with 3500 cells per well. After 24 hours, the 10 μL prepared 10× compound working solution was added into the pores of the cell culture plate with a final concentration of 10 μM. 3.3333 μM, 1.1111 μM, 0.3704 μM, 0.1235 μM, 0.0412 μM, 0.0137 μM, 0.0046 μM, 0.0015 μM, 0.0005 μM, 10 μL DMSO was added to the solvent control, and the final concentration of DMSO was 0.2%. The 0-day plates were collected for analysis, and after 144 hours of culture, the growth condition of cells was detected according to the instructions of CellTiter-Glo cell activity assay kit. Add 50 μL of CellTiter-Glo working liquid into each hole of the cell culture plate, shake the plates in the dark for 2 minutes until cell lysis, and place at room temperature for 10 minutes to detect the luminous signal (RUL) of each cell hole on the 2104En Vision board reader.
Calculation formula: Growth inhibition rate %=(1−(RLU compound−RLU Day0)/(RLU solvent control−RLU Day0))*100%. The dose-response curves of each compound were fitted by GraphPad Prism 8 to obtain IC50 values.
For the matter, IC50 values less than 0.1 μM are labeled “+++”, values from 0.1 to 1 μM are labeled “++”, and values greater than 1 to 10 μM are labeled “+”.

Structure (SMILES) | IC50 [1] | IC50 [2]
C[C@@H]1CN(c2ccc(C#N)cn2)CCN1C(=O)CO/N=C/[C@H](C)Nc1cn[nH]c(=O)c1C(F)(F)F [Example 13, 6-((R)-3-methyl-4-(2-(((E)-((S)-2-((6-oxo-5-(trifluoromethyl)-1,6-dihydropyridazin-4-yl)amino)propylidene)amino)oxy)acetyl)piperazin-1-yl)nicotinonitrile] | < 10 nM | 1000 to 10000 nM
C[C@@H](CO/N=C/C(=O)N1CCN(c2ncc(C(F)(F)F)cn2)CC1)Nc1cn[nH]c(=O)c1C(F)(F)F [Example 15, (S,E)-2-oxo-2-(4-(5-(trifluoromethyl)pyrimidin-2-yl)piperazin-1-yl)acetaldehyde O-(2-((6-oxo-5-(trifluoromethyl)-1,6-dihydropyridazin-4-yl)amino)propyl) oxime] | < 10 nM | 100 to 1000 nM
CC(=O)c1c(N[C@@H](C)CONC(=O)CC2CCN(c3ncc(C(F)(F)F)cn3)CC2)cn[nH]c1=O [Example 36, (S)—N-(2-((5-acetyl-6-oxo-1,6-dihydropyridazin-4-yl)amino)propoxy)-2-(1-(5-(trifluoromethyl)pyrimidin-2-yl)piperidin-4-yl)acetamide] | < 10 nM | < 100 nM
CC1CN(c2ncc(-c3ccccc3F)cn2)CC=C1CC(=O)NOC[C@H](C)Nc1cn[nH]c(=O)c1C(F)(F)F (stereo partly drawn) [Example 27, 2-(1-(5-(2-fluorophenyl)pyrimidin-2-yl)-3-methyl-1,2,3,6-tetrahydropyridin-4-yl)-N—((S)-2-((6-oxo-5-(trifluoromethyl)-1,6-dihydropyridazin-4-yl)amino)propoxy)acetamide] | < 10 nM | 100 to 1000 nM
C[C@@H](CONC(=O)CC1=CCN(c2ncc(C3CC3)cn2)CC1)Nc1cn[nH]c(=O)c1C(F)(F)F [Example 29, (S)-2-(1-(5-cyclopropylpyrimidin-2-yl)-1,2,3,6-tetrahydropyridin-4-yl)-N-(2-((6-oxo-5-(trifluoromethyl)-1,6-dihydropyridazin-4-yl)amino)propoxy)acetamide] | < 10 nM | < 100 nM
C[C@@H](CONC(=O)C(F)C1CCN(c2ncc(C(F)(F)F)cn2)CC1)Nc1cn[nH]c(=O)c1C(F)(F)F (stereo partly shown) [Example 48] | < 10 nM | < 100 nM
C/C(=N\OC[C@H](C)Nc1cn[nH]c(=O)c1C(F)(F)F)C(=O)N1CCN(c2ncc(C(F)(F)F)cn2)CC1 [Example 16, (S,E)-5-((1-(((1-oxo-1-(4-(5-(trifluoromethyl)pyrimidin-2-yl)piperazin-1-yl)propan-2-ylidene)amino)oxy)propan-2-yl)amino)-4-(trifluoromethyl)pyridazin-3(2H)-one] | 10 to 100 nM | 
CC1=C(CC(=O)NOC[C@H](C)Nc2cn[nH]c(=O)c2C(F)(F)F)CCN(c2ncc(C3CC3)cn2)C1 [Example 31, (S)-2-(1-(5-cyclopropylpyrimidin-2-yl)-5-methyl-1,2,3,6-tetrahydropyridin-4-yl)-N-(2-((6-oxo-5-(trifluoromethyl)-1,6-dihydropyridazin-4-yl)amino)propoxy)acetamide] |  | 100 to 1000 nM
C[C@@H](CONS(=O)(=O)CC1CCN(c2ncc(C(F)(F)F)cn2)CC1)Nc1cn[nH]c(=O)c1C(F)(F)F [Example 47, (S)—N-(2-((6-oxo-5-(trifluoromethyl)-1,6-dihydropyridazin-4-yl)amino)propoxy)-1-(1-(5-(trifluoromethyl)pyrimidin-2-yl)piperidin-4-yl)methanesulfonamide] |  | 1000 to 10000 nM
C[C@@H](CONC(=O)C1(C2CCN(c3ncc(C(F)(F)F)cn3)CC2)CC1)Nc1cn[nH]c(=O)c1C(F)(F)F [Example 50, (S)—N-(2-((6-oxo-5-(trifluoromethyl)-1,6-dihydropyridazin-4-yl)amino)propoxy)-1-(1-(5-(trifluoromethyl)pyrimidin-2-yl)piperidin-4-yl)cyclopropanecarboxamide] |  | 1000 to 10000 nM

Second part, the compound after the results:

IC50 [1] | IC50 [2] | Structure (SMILES)
< 10 nM |  | C[C@@H](CNOCC(=O)N1CCN(c2ncc(C(F)(F)F)cn2)CC1)Nc1cn[nH]c(=O)c1C(F)(F)F [Example 1, (S)-5-((1-((2-oxo-2-(4-(5-(trifluoromethyl)pyrimidin-2-yl)piperazin-1-yl)ethoxy)amino)propan-2-yl)amino)-4-(trifluoromethyl)pyridazin-3(2H)-one]
< 10 nM | 1000 to 10000 nM | C[C@@H](/C=N/OCC(=O)N1CCN(c2ccc(C#N)cn2)CC1)Nc1cn[nH]c(=O)c1C(F)(F)F [Example 11, (S,E)-6-(4-(2-(((2-((6-oxo-5-(trifluoromethyl)-1,6-dihydropyridazin-4-yl)amino)propylidene)amino)oxy)acetyl)piperazin-1-yl)nicotinonitrile]
< 10 nM |  | C[C@@H](CN(C)OCC(=O)N1CCN(c2ncc(C(F)(F)F)cn2)CC1)Nc1cn[nH]c(=O)c1C(F)(F)F [Example 2, (S)-5-((1-(methyl(2-oxo-2-(4-(5-(trifluoromethyl)pyrimidin-2-yl)piperazin-1-yl)ethoxy)amino)propan-2-yl)amino)-4-(trifluoromethyl)pyridazin-3(2H)-one]
< 10 nM | 1000 to 10000 nM | C[C@@H](/C=N/OCC(=O)N1CCN(c2ncc(C#N)cn2)CC1)Nc1cn[nH]c(=O)c1C(F)(F)F [Example 7, (S,E)-2-(4-(2-(((2-((6-oxo-5-(trifluoromethyl)-1,6-dihydropyridazin-4-yl)amino)propylidene)amino)oxy)acetyl)piperazin-1-yl)pyrimidine-5-carbonitrile]
10 to 100 nM |  | C/C(=N\OCC(=O)N1CCN(c2ncc(C(F)(F)F)cn2)CC1)[C@H](C)Nc1cn[nH]c(=O)c1C(F)(F)F [Example 8, (S,E)-5-((3-((2-oxo-2-(4-(5-(trifluoromethyl)pyrimidin-2-yl)piperazin-1-yl)ethoxy)imino)butan-2-yl)amino)-4-(trifluoromethyl)pyridazin-3(2H)-one]
10 to 100 nM |  | CCN(C[C@H](C)Nc1cn[nH]c(=O)c1C(F)(F)F)OCC(=O)N1CCN(c2ncc(C(F)(F)F)cn2)CC1 [Example 3, (S)-5-((1-(ethyl(2-oxo-2-(4-(5-(trifluoromethyl)pyrimidin-2-yl)piperazin-1-yl)ethoxy)amino)propan-2-yl)amino)-4-(trifluoromethyl)pyridazin-3(2H)-one]
10 to 100 nM |  | C[C@@H](CN(C)OCC(=O)N1CCN(c2ncc(C#N)cn2)CC1)Nc1cn[nH]c(=O)c1C(F)(F)F [Example 4, (S)-2-(4-(2-((methyl(2-((6-oxo-5-(trifluoromethyl)-1,6-dihydropyridazin-4-yl)amino)propyl)amino)oxy)acetyl)piperazin-1-yl)pyrimidine-5-carbonitrile]

From patent US20240336596A1, “PARP7 INHIBITOR AND USE THEREOF” (NOVOSTAR PHARMACEUTICALS, LTD., priority 2022, published 2024)
